Columns and labels:
[1] = tested on: bedstraw; test: Test B pre/postemergence bedstraw; format: in vivo, Galium aparine
Procedure, shortened: (§1)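 Response is a visual 0-to-10 score relative to untreated plants, where 0 means no effect and 10 means complete control, taken twelve to sixteen days after application. Treatments went onto soil at planting and onto foliage of 1- to 4-leaf plants, using a surfactant-containing non-phytotoxic solvent.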

[2] = tested on: blackgrass; test: Test B pre/postemergence blackgrass; format: in vivo, Alopecurus myosuroides
Procedure, shortened: as §1

[3] = tested on: surinam grass; test: Test B pre/postemergence surinam grass; format: in vivo, Brachiaria decumbens
Procedure, shortened: as §1

[4] = tested on: cocklebur; test: Test B pre/postemergence cocklebur; format: in vivo, Xanthium strumarium
Procedure, shortened: as §1

[5] = tested on: corn; test: Test B pre/postemergence corn; format: in vivo, Zea mays
Procedure, shortened: as §1

[6] = tested on: morningglory; test: Test B pre/postemergence morningglory; format: in vivo, Ipomoea hederacea
Procedure, shortened: as §1

[7] = tested on: pigweed; test: Test B pre/postemergence pigweed; format: in vivo, Amaranthus retroflexus
Procedure, shortened: as §1

[8] = tested on: rape; test: Test B pre/postemergence rape; format: in vivo, Brassica napus
Procedure, shortened: as §1

[9] = tested on: velvetleaf; test: Test B pre/postemergence velvetleaf; format: in vivo, Abutilon theophrasti
Procedure, shortened: as §1

[10] = tested on: wheat; test: Test B pre/postemergence wheat; format: in vivo, Triticum aestivum
Procedure, shortened: as §1

[11] = tested on: wild oat; test: Test B pre/postemergence wild oat; format: in vivo, Avena fatua
Procedure, shortened: as §1

[12] = tested on: purple nutsedge; test: Test B pre/postemergence purple nutsedge; format: in vivo, Cyperus rotundus
Procedure, shortened: as §1

[13] = tested on: rice; test: Test B flood test rice; format: in vivo, Oryza sativa
Procedure, shortened: (§2)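 Plants were grown to the 2-leaf stage before treatment with test chemical, then held in a greenhouse for twelve to sixteen days. Injury was visually rated against untreated controls on a 0–10 scale, where 0 is no effect and 10 is complete control.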

[14] = tested on: smallflower flatsedge; test: Test B flood test smallflower flatsedge; format: in vivo, Cyperus difformis
Procedure, shortened: as §2

[15] = tested on: duck salad; test: Test B flood test duck salad; format: in vivo, Heteranthera limosa
Procedure, shortened: as §2

[16] = tested on: bamyardgrass; test: Test B flood test barnyardgrass; format: in vivo, Echinochloa crus-galli
Procedure, shortened: as §2

[17] = Postemergence, Rate 31 g/ha, visual rating, scale 0 to 10 (0 no effect, 10 complete control)
[18] = Preemergence, Rate 31 g/ha, visual rating, scale 0 to 10 (0 no effect, 10 complete control)
[19] = Preemergence, Rate 62 g/ha, scale of 0 to 10 where 0 is no effect and 10 is complete control
[20] = Preemergence, Rate 250 g/ha, scale of 0 to 10 where 0 is no effect and 10 is complete control
[21] = Rate 62 g/ha, Postemergence, scale 0 to 10 (0 no effect, 10 complete control)
[22] = Rate 125 g/ha, Postemergence, scale of 0 to 10 where 0 is no effect and 10 is complete control
[23] = Rate 125 g/ha, Preemergence, scale of 0 to 10 where 0 is no effect and 10 is complete control
[24] = Rate 250 g/ha, Postemergence, scale of 0 to 10 where 0 is no effect and 10 is complete control
[25] = Rate 31 g/ha, Pre-emergence section (flood test species), scale 0 to 10
[26] = Rate 62 g/ha, headed Pre-emergence (flood test species), scale 0 to 10 (0 no effect, 10 complete control)
[27] = Rate 125 g/ha, Pre-emergence, flood test species, scale 0 to 10 where 0 is no effect and 10 is complete control
[28] = Rate 250 g/ha, Pre-emergence, flood-test species, scale 0 to 10, 0 is no effect, 10 is complete control

CC(C)N(C(=O)n1oc(=O)n(CCCCF)c1=O)c1ccc(F)cc1 [Compound 289]
10: Rape plant response rating [8, 20]
4: Bedstraw plant response rating [1, 23]
8: Plant response rating, Bedstraw [1, 24] | Blackgrass plant response rating [2, 19] | B. signalgrass plant response rating [3, 20] | Plant response rating, Morningglory [6, 24] | Redroot pigweed plant response rating [7, 20] | Rape plant response rating [8, 23] | Wild oats plant response rating [11, 20]
6: Blackgrass plant response rating [2, 18] | Morningglory plant response rating [6, 22] | Redroot pigweed plant response rating [7, 23] | Velvetleaf plant response rating [9, 23]
9: Blackgrass plant response rating [2, 20] | Blackgrass plant response rating [2, 22] | Blackgrass plant response rating [2, 23] | Plant response rating, Blackgrass [2, 24]
1: Cocklebur plant response rating [4, 22] | Wild oats plant response rating [11, 19] | Rice plant response rating [13, 28]
2: Blackgrass plant response rating [2, 17] | B. signalgrass plant response rating [3, 18] | Plant response rating, Cocklebur [4, 24] | Corn plant response rating [5, 20] | Morningglory plant response rating [6, 17] | Rape plant response rating [8, 22] | Plant response rating, Rape [8, 24] | Wheat plant response rating [10, 20] | Wheat plant response rating [10, 21] | Wheat plant response rating [10, 23]
0: Bedstraw plant response rating [1, 17] | Bedstraw plant response rating [1, 18] | Bedstraw plant response rating [1, 19] | Bedstraw plant response rating [1, 21] | B. signalgrass plant response rating [3, 17] | B. signalgrass plant response rating [3, 21] | Cocklebur plant response rating [4, 17] | Cocklebur plant response rating [4, 18] | Cocklebur plant response rating [4, 19] | Cocklebur plant response rating [4, 20] | Cocklebur plant response rating [4, 21] | Cocklebur plant response rating [4, 23] | Corn plant response rating [5, 17] | Corn plant response rating [5, 18] | Corn plant response rating [5, 19] | Corn plant response rating [5, 21] | Corn plant response rating [5, 22] | Corn plant response rating [5, 23] | Plant response rating, Corn [5, 24] | Morningglory plant response rating [6, 18] | Morningglory plant response rating [6, 19] | Morningglory plant response rating [6, 20] | Morningglory plant response rating [6, 23] | Redroot pigweed plant response rating [7, 17] | Redroot pigweed plant response rating [7, 21] | Rape plant response rating [8, 17] | Rape plant response rating [8, 18] | Rape plant response rating [8, 19] | Rape plant response rating [8, 21] | Velvetleaf plant response rating [9, 17] | Velvetleaf plant response rating [9, 18] | Velvetleaf plant response rating [9, 21] | Velvetleaf plant response rating [9, 22] | Wheat plant response rating [10, 17] | Wheat plant response rating [10, 18] | Wheat plant response rating [10, 19] | Wild oats plant response rating [11, 17] | Wild oats plant response rating [11, 18] | Wild oats plant response rating [11, 21] | Nutsedge plant response rating [12, 17] | Nutsedge plant response rating [12, 18] | Nutsedge plant response rating [12, 19] | Nutsedge plant response rating [12, 20] | Nutsedge plant response rating [12, 21] | Nutsedge plant response rating [12, 22] | Nutsedge plant response rating [12, 23] | Plant response rating, Nutsedge [12, 24] | Rice plant response rating [13, 25] | Rice plant response rating [13, 26] | Rice plant response rating [13, 27] | S. Flatsedge plant response rating [14, 25] | S. Flatsedge plant response rating [14, 26] | S. Flatsedge plant response rating [14, 27] | S. Flatsedge plant response rating [14, 28] | Ducksalad plant response rating [15, 25] | Ducksalad plant response rating [15, 26] | Ducksalad plant response rating [15, 27] | Ducksalad plant response rating [15, 28] | Barnyardgrass plant response rating [16, 25] | Barnyardgrass plant response rating [16, 26] | Barnyardgrass plant response rating [16, 27]
7: Bedstraw plant response rating [1, 20] | B. signalgrass plant response rating [3, 19] | B. signalgrass plant response rating [3, 23] | Plant response rating, Redroot pigweed [7, 24] | Velvetleaf plant response rating [9, 20] | Plant response rating, Wheat [10, 24]
3: Bedstraw plant response rating [1, 22] | B. signalgrass plant response rating [3, 22] | Plant response rating, B. signalgrass [3, 24] | Morningglory plant response rating [6, 21] | Velvetleaf plant response rating [9, 19] | Plant response rating, Velvetleaf [9, 24] | Wild oats plant response rating [11, 22] | Plant response rating, Wild oats [11, 24] | Barnyardgrass plant response rating [16, 28]
5: Blackgrass plant response rating [2, 21] | Redroot pigweed plant response rating [7, 18] | Redroot pigweed plant response rating [7, 19] | Redroot pigweed plant response rating [7, 22] | Wheat plant response rating [10, 22]
